The conditions of data set [1]: cited from earlier work.
Data set [2] has as its system rats with an excessively high iron level. The data set can be described thus: elimination of iron from rats with an excessively high iron level by excretion in urine and faeces after intravenous administration. The format is in vivo. The settings on record: over 72 hours, by comparison with Desferal (= 1). From the text: (§1) all-cis-1,3,5-Triamino-2,4,6-cyclohexanetriol (10), all-cis-1,3,5-tris-(dimethylamino)-2,4,6-cyclohexane triol hydrochloride (12a), all-cis-1,3,5-tris-(trimethylammonio)-2,4,6-[…] (19c) and all-cis-1,3,5-tris-(succinoylamino)-2,4,6-cyclohexanetriol are found to have the following values in mg/kg of body weight in the orientating LD50 -toxicity test on white mice after intravenous injection: 158, 440, 235 and >1000. The elimination of iron from rats with an excessively high iron level by excretion in the urine and faeces after intravenous administration is shown in the following Table by comparison with the figures obtained with Desferal. The rates of excretion were measured over 72 hours after application.

The conditions of data set [3]: parenteral; cited from earlier work.
Data set [4] is described as follows: orientating LD50-toxicity test on white mice after intravenous injection. The settings on record: mouse, in vivo.
Source text: as §1

Data set [5] can be described thus: general statement on toxicity.
The nature of a further data set: pK-values (approximate). The format is physicochemical.
Data set [6] can be described thus: Response to iron(III): keeping iron(III) in solution by complex formation. The format is physicochemical.
Another data set is described as follows: Solubility. The format is physicochemical.
The nature of data set [7]: Response to β-FeO(OH): dissolution of this rust. Particulars: in words.
Setting [8] is: white mice, intravenous injection, orientating test, read-out: LD50.
Where [9] appears, read: pK2, second lowest value of the list.
Setting [10] is: pK3, third lowest value of the list.
Where [11] appears, read: pK4, fourth lowest value of the list.
[12] abbreviates: pK5, fifth lowest value of the list.
Where [13] appears, read: pK6, sixth lowest value of the list.

Where two headings read alike, the source gives them in different places.

`CC(=O)N(O)CCCCCNC(=O)CCC(=O)N(O)CCCCCNC(=O)CCC(=O)N(O)CCCCCN` [Desferal, 30-amino-3,14,25-trihydroxy-3,9,14,20,25-pentaaza-2,10,13,21,24-triacontane-pentanone-methane sulphonate, reference compound]: the “serious side effects after prolonged administration” value in data set [1] was “visual disturbances”. In addition, in data set [2], the “elimination of iron by excretion in the faeces” value (“elimination … in the faeces” below) is recorded as 1 and the “elimination of iron by excretion in the urine” value (“elimination … in the urine” for short) was determined as 1. In addition, the “half life in the body” value in [3] was “very short”.
On to `N[C@H]1[C@@H](O)[C@@H](N)[C@@H](O)[C@@H](N)[C@H]1O` [Example 10, all-cis-1,3,5-Triamino-2,4,6-cyclohexanetriol], for which the LD50 (commonly the dose at which mortality reaches 50%) in [4] (setting [8]) is 158 mg/kg. Further, in [2], the “elimination … in the faeces” value is 0.2 and the “elimination … in the urine” value is listed as 0.1. Moreover, the toxicity entry in data set [5] is “relatively low toxicity”.
Regarding `O=P(O)(O)CN[C@H]1[C@@H](O)[C@@H](NCP(=O)(O)O)[C@@H](O)[C@@H](NCP(=O)(O)O)[C@H]1O` [Example 11, all-cis-1,3,5-Tris-(ammoniomethanephosphonic acid)-2,4,6-cyclohexanetriol trichloride], the pKa (in general, the pH at which an ionisable group is half protonated) in the data set “pK-values (approximate)” (pK1, lowest value of the list) was ~5.2; in “pK-values (approximate)” (setting [9]) it was ~6; in “pK-values (approximate)” (setting [10]), ~6.5; in “pK-values (approximate)” (setting [11]) it was ~7; in the data set “pK-values (approximate)” (setting [12]), ~8; in the data set “pK-values (approximate)” (setting [13]), ~9.5.
Consider `O=C(O)CCN[C@H]1[C@@H](O)[C@@H](NCCC(=O)O)[C@@H](O)[C@@H](NCCC(=O)O)[C@H]1O` [Example 12], for which, in [6] (Fe(III):ligand=1:1, result in words), the “pH range in which a solution containing Fe(III) and ligand is clear” value is given as “clear over the entire ranges of pH”. In addition, in data set [6] (pH 3 to 6), the “solubility of the iron complex” value was “relatively sparingly soluble”. The “maximum Fe(III) kept in solution per ligand” value in data set [6] (pH 7.5) is reported as ≤ 2 Fe(III) per ligand. For the same compound, the pKa in “pK-values (approximate)” (pK1, lowest value of the list) was ~6.2; in “pK-values (approximate)” (setting [9]) it was ~8.2; in “pK-values (approximate)” (setting [10]) it was ~9.7.
Regarding `CN(C)[C@H]1[C@@H](O)[C@@H](N(C)C)[C@@H](O)[C@@H](N(C)C)[C@H]1O` [Example 12a, all-cis-1,3,5-Tris-(dimethylammonio)-2,4,6-cyclohexanetriol trichloride dihydrate], the LD50 in data set [4] (iv) was 440 mg/kg. Moreover, in data set [2], the “elimination … in the faeces” value was 0.5 and the “elimination … in the urine” value is on record as 1.
On to `CN(C)[C@H]1[C@@H](O)[C@@H](N(C)C)[C@@H](O)[C@@H](N(C)C)[C@H]1O` [Example 12b, all-cis-1,3,5-Tris-(dimethylammonio)-2,4,6-cyclohexanetriol sulphate], for which the “solubility in boiling methanol” value in “Solubility” (boiling methanol) is “virtually insoluble”.
On to `O=C(O)CN[C@H]1[C@@H](O)[C@@H](NCC(=O)O)[C@@H](O)[C@@H](NCC(=O)O)[C@H]1O` [Example 13, all-cis-1,3,5-Tris-(ammonioacetic acid)-2,4,6-cyclohexanetriol trichloride], for which the “precipitation of iron hydroxide” value in [6] (ligand:iron ratio of 1:1, pH higher than about 11) is on record as “Iron hydroxide precipitates”. Besides, the pKa was ~5.7 in the data set “pK-values (approximate)” (setting [11]), ~7.8 in the data set “pK-values (approximate)” (setting [12]), ~8.9 in the data set “pK-values (approximate)” (setting [13]) and < 3 in “pK-values (approximate)” (three lowest pK-values).
Turning to `CCCCN(CC(=O)O)[C@H]1[C@@H](O)[C@@H](N(CCCC)CC(=O)O)[C@@H](O)[C@@H](N(CCCC)CC(=O)O)[C@H]1O` [Example 15, all-cis-1,3,5-(N-butylammonioacetic acid)-2,4,6-cyclohexanetriol trichloride], the “Response to β-FeO(OH)” value in data set [7] is “Identical to Examples 13 and 14”.
Consider `O=C(O)CCC(=O)N[C@H]1[C@@H](O)[C@@H](NC(=O)CCC(=O)O)[C@@H](O)[C@@H](NC(=O)CCC(=O)O)[C@H]1O` [Example 16, all-cis-1,3,5a-tris-(succinoylamino)-2,4,6-cyclohexanetriol], for which the LD50 in [4] (setting [8]) is > 1000 mg/kg. The Solubility entry is recorded as “sparingly” in “Solubility” (cyclohexane), “Readily” in the data set “Solubility” (water), “Readily” in the data set “Solubility” (water/EtOH) and “Readily” in the data set “Solubility” (water/MeOH).
Take `C[N+](C)(C)[C@H]1[C@@H](O)[C@@H]([N+](C)(C)C)[C@@H](O)[C@@H]([N+](C)(C)C)[C@H]1O` [Example 19c]: in [4] (setting [8]), the median lethal dose (LD50) was 235 mg/kg. Also, in data set [2], the “elimination … in the faeces” value worked out at 0.5 and the “elimination … in the urine” value was 0.2.
With `N#CCCN[C@H]1[C@@H](O)[C@@H](NCCC#N)[C@@H](O)[C@@H](NCCC#N)[C@H]1O` [all-cis-1,3,5-tris-(2'-aminopropionitrile)-2,4,6-cyclohexanetriol], the pKa was ~3 in the data set “pK-values (approximate)” (pK1, lowest value of the list); ~4.5 in the data set “pK-values (approximate)” (setting [9]); ~6.3 in “pK-values (approximate)” (setting [10]).
Take `N#CCN[C@H]1[C@@H](O)[C@@H](NCC#N)[C@@H](O)[C@@H](NCC#N)[C@H]1O` [all-cis-1,3,5-tris-(aminoacetic acid nitrile)-2,4,6-cyclohexanetriol]: the pKa in “pK-values (approximate)” (highest pK of nitrile intermediate) was ~6.5; in the data set “pK-values (approximate)” (next lowest pK of nitrile intermediate), ~3.
